Results on 22 compounds are retold here after patent US7994185B2, “Benzene sulfonamide thiazole and oxazole compounds” (Glaxo Smith Kline LLC, priority 2008, dated 2011).

Read-outs that look alike come from different tables or passages of the source.

The assay concerns the target T1, BRAFV600E full-length (amino acids 2-766) (Homo sapiens, UniProt P15056, V600E).
T1 construct: His6-tagged BRAFV600E full-length (amino acids 2-766); His6; made in house; host or cells: baculovirus expression system (insect cells)
Kind of assay: B-Raf Accelerated MEK ATPase assay (BRAMA). It counts as biochemical. As to conditions: categorized. As to the method: Compounds of the present invention were tested for B-Raf protein serine kinase inhibitory activity in a B-Raf Accelerated MEK ATPase assay (BRAMA). […] The BRAMA assay is a high sensitivity assay which measures an intrinsic MEK-mediated ATP hydrolysis uncoupled from downstream ERK phosphorylation by coupling the formation of ADP to NADH oxidation through the enzymes pyruvate kinase and lactate dehydrogenase. When ADP production is initiated by addition of catalytic amounts of an activated Raf enzyme and non-phosphorylated MEK, one observes robust ADP production concomitant with Raf-mediated phosphorylation of MEK. The method is disclosed in: C. Rominger, M. Schaber, E. May. Assay for B-Raf Activity Based on Intrinsic MEK ATPase Activity.

[1] abbreviates: B-Raf pIC50, Table 1b, later runs, average pIC50 for the one or more runs.
Setting [2] is: B-Raf Activity, Table 1a, highest pIC50 for the one or more runs.
Where [3] appears, read: Table 1b, later runs, average pIC50 for the one or more runs, read-out: B-Raf pIC50 (converted).
Setting [4] is: Table 1a, highest pIC50 for the one or more runs, read-out: B-Raf Activity.

T1 sequence (P15056 2-766 V600E): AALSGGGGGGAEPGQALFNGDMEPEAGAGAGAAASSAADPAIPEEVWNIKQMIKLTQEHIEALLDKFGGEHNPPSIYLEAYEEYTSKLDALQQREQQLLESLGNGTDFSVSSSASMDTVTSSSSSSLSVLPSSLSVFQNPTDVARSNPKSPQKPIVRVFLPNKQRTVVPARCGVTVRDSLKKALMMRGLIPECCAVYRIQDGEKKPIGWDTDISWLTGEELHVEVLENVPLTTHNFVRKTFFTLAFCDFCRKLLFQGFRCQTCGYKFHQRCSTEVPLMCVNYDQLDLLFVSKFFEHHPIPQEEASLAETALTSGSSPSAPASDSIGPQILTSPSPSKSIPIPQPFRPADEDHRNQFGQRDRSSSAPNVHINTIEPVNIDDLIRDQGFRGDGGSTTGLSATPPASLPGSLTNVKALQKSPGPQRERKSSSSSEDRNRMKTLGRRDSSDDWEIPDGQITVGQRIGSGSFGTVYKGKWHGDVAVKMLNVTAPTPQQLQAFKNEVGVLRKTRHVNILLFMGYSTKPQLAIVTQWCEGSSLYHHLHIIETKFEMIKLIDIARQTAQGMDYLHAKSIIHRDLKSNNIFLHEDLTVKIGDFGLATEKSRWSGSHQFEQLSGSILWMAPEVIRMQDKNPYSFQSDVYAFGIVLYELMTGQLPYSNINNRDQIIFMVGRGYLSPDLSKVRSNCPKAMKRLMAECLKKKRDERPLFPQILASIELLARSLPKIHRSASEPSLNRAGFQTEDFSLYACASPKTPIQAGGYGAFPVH

Compound `Nc1nccc(-c2sc(C3CCNCC3)nc2-c2cccc(NS(=O)(=O)c3c(F)cccc3F)c2F)n1` [Example 322, N-{3-[5-(2-amino-4-pyrimidinyl)-2-(4-piperidinyl)-1,3-thiazol-4-yl]-2-fluorophenyl}-2,6-difluorobenzenesulfonamide] yielded an IC50 under setting [1] of no more than 3.16 nM.

For the compound `C[C@H](O)CNc1nccc(-c2sc(C3CCOCC3)nc2-c2cccc(NS(=O)(=O)c3ccoc3)c2F)n1` [Example 303, N-{2-fluoro-3-[5-(2-{[(2S)-2-hydroxypropyl]amino}-4-pyrimidinyl)-2-(tetrahydro-2H-pyran-4-yl)-1,3-thiazol-4-yl]phenyl}-3-furansulfonamide], under setting [1], the IC50 was no more than 3.16 nM.

The compound `CC(C)CNc1nccc(-c2sc(C3CCOCC3)nc2-c2cccc(NS(=O)(=O)c3ccoc3)c2F)n1` [Example 304, N-{2-fluoro-3-[5-{2-[(2-methylpropyl)amino]-4-pyrimidinyl}-2-(tetrahydro-2H-pyran-4-yl)-1,3-thiazol-4-yl]phenyl}-3-furansulfonamide] gave an IC50 under setting [1] of no more than 3.16 nM.

Regarding `CC(C)(C)c1nc(-c2cccc(NS(=O)(=O)c3c(F)cccc3F)c2F)c(-c2ccnc(N)n2)o1` [Example 296, N-{3-[5-(2-amino-4-pyrimidinyl)-2-(1,1-dimethylethyl)-1,3-oxazol-4-yl]-2-fluorophenyl}-2,6-difluorobenzenesulfonamide], the IC50 under setting [1] was no more than 3.16 nM.

With `CC(C)c1nc(-c2cccc(NS(=O)(=O)c3cccc(F)c3)c2)c(-c2ccnc(NCC(N)=O)n2)s1` [Example 87, N^2-{4-[4-(3-{[(3-Fluorophenyl)sulfonyl]amino}phenyl)-2-(1-methylethyl)-1,3-thiazol-5-yl]-2-pyrimidinyl}glycinamide], the IC50 was less than 100 nM under setting [2] and 3.16 to 31.6 nM under setting [3].

The compound `O=S(=O)(Nc1cccc(-c2nc(C3CCOCC3)sc2-c2ccnc(NC3CCOCC3)n2)c1F)c1ccoc1` [Example 305, N-(2-fluoro-3-{2-(tetrahydro-2H-pyran-4-yl)-5-[2-(tetrahydro-2H-pyran-4-ylamino)-4-pyrimidinyl]-1,3-thiazol-4-yl}phenyl)-3-furansulfonamide] registered an IC50 under setting [1] of no more than 3.16 nM.

`CC1(c2nc(-c3cccc(NS(=O)(=O)c4ccoc4)c3F)c(-c3ccnc(N)n3)s2)CCNCC1` [Example 319, N-{3-[5-(2-amino-4-pyrimidinyl)-2-(4-methyl-4-piperidinyl)-1,3-thiazol-4-yl]-2-fluorophenyl}-3-furansulfonamide] yielded an IC50 under setting [1] of no more than 3.16 nM.

On to `CC(C)c1nc(-c2cccc(NS(=O)(=O)c3c(F)cccc3F)c2F)c(-c2ccnc(NCCS(C)(=O)=O)n2)s1` [Example 11, 2,6-Difluoro-N-{2-fluoro-3-[2-(1-methylethyl)-5-(2-{[2-(methylsulfonyl)ethyl]amino}-4-pyrimidinyl)-1,3-thiazol-4-yl]phenyl}benzenesulfonamide], for which the IC50 is, setting by setting: under setting [2], less than 100 nM; under setting [1], no more than 3.16 nM.

Under setting [1], `CC(C)(C)c1nc(-c2cccc(NS(=O)(=O)c3cc(F)ccc3F)c2F)c(-c2ccnc(N)n2)o1` [Example 297, N-{3-[5-(2-amino-4-pyrimidinyl)-2-(1,1-dimethylethyl)-1,3-oxazol-4-yl]-2-fluorophenyl}-2,5-difluorobenzenesulfonamide] came in with an IC50 of no more than 3.16 nM.

Under setting [1], `CC(C)(C)c1nc(-c2cccc(NS(=O)(=O)c3c(F)cccc3F)c2F)c(-c2ccnc(NCCO)n2)s1` [Example 293, N-[3-(2-(1,1-dimethylethyl)-5-{2-[(2-hydroxyethyl)amino]-4-pyrimidinyl}-1,3-thiazol-4-yl)-2-fluorophenyl]-2,6-difluorobenzenesulfonamide] had an IC50 of no more than 3.16 nM.

For `Cc1nccc(-c2sc(C3CCNCC3)nc2-c2cccc(NS(=O)(=O)c3c(F)cccc3F)c2F)n1` [Example 321, 2,6-difluoro-N-{2-fluoro-3-[5-(2-methyl-4-pyrimidinyl)-2-(4-piperidinyl)-1,3-thiazol-4-yl]phenyl}benzenesulfonamide], under setting [3], the IC50 is 3.16 to 31.6 nM.

Consider `CC(C)(C)c1nc(-c2cccc(NS(=O)(=O)c3ccoc3)c2F)c(-c2ccnc(N)n2)o1` [Example 299, N-{3-[5-(2-amino-4-pyrimidinyl)-2-(1,1-dimethylethyl)-1,3-oxazol-4-yl]-2-fluorophenyl}-3-furansulfonamide], for which, under setting [1], the IC50 was no more than 3.16 nM.

Compound `O=S(=O)(Nc1cccc(-c2nc(C3CCOCC3)sc2-c2ccnc(NCCN3CCCC3)n2)c1F)c1ccoc1` [Example 306, N-{2-fluoro-3-[5-(2-{[2-(1-pyrrolidinyl)ethyl]amino}-4-pyrimidinyl)-2-(tetrahydro-2H-pyran-4-yl)-1,3-thiazol-4-yl]phenyl}-3-furansulfonamide] registered an IC50 under setting [1] of no more than 3.16 nM.

Compound `Nc1nccc(-c2scnc2-c2cccc(NS(=O)(=O)c3c(F)cccc3F)c2)n1` [Example 114, N-{3-[5-(2-Amino-4-pyrimidinyl)-1,3-thiazol-4-yl]phenyl}-2,6-difluorobenzenesulfonamide] came in with an IC50 under setting [2] of 100 to 1000 nM and an IC50 under setting [1] of 31.6 to 1000 nM.

Take `CC(C)c1nc(-c2ccc(F)c(NS(=O)(=O)c3c(F)cccc3F)c2)c(-c2ccnc(NCCN3CCOCC3)n2)s1` [Example 171]: the IC50 under setting [4] was in the range of 100 to 1000 nM.

`CS(=O)(=O)NCc1nccc(-c2sc(N3CCOCC3)nc2-c2cccc(NS(=O)(=O)c3cc(F)ccc3F)c2F)n1` [Example 273, 2,5-difluoro-N-{2-fluoro-3-[5-(2-{[(methylsulfonyl)amino]methyl}-4-pyrimidinyl)-2-(4-morpholinyl)-1,3-thiazol-4-yl]phenyl}benzenesulfonamide] came in with an IC50 under setting [1] of no more than 3.16 nM.

Consider `CC(C)c1nc(-c2ccc(F)c(NS(=O)(=O)c3c(F)cccc3F)c2)c(-c2ccnc(NCCOCCO)n2)s1` [Example 172], for which, under setting [4], the IC50 fell in the range of 100 to 1000 nM.

For `COCCCNc1nccc(-c2sc(C(C)C)nc2-c2ccc(F)c(NS(=O)(=O)c3c(F)cccc3F)c2)n1` [Example 174], the IC50 under setting [4] was in the range of 100 to 1000 nM.

Regarding `CC(C)c1nc(-c2ccc(F)c(NS(=O)(=O)c3c(F)cccc3F)c2)c(-c2ccnc(NCCS(C)(=O)=O)n2)s1` [Example 8, 2,6-Difluoro-N-{2-fluoro-5-[2-(1-methylethyl)-5-(2-{[2-(methylsulfonyl)ethyl]amino}-4-pyrimidinyl)-1,3-thiazol-4-yl]phenyl}benzenesulfonamide], the IC50 was less than 100 nM under setting [2] and 3.16 to 31.6 nM under setting [3].

For the compound `CC(C)C(=O)NCc1nccc(-c2sc(N3CCOCC3)nc2-c2cccc(NS(=O)(=O)c3cc(F)ccc3F)c2F)n1` [Example 275, N-({4-[4-(3-{[(2,5-difluorophenyl)sulfonyl]amino}-2-fluorophenyl)-2-(4-morpholinyl)-1,3-thiazol-5-yl]-2-pyrimidinyl}methyl)-2-methylpropanamide], the IC50 under setting [3] was 3.16 to 31.6 nM.

Compound `CC(C)(C)c1nc(-c2cccc(NS(=O)(=O)c3ccco3)c2F)c(-c2ccnc(N)n2)o1` [Example 298, N-{3-[5-(2-amino-4-pyrimidinyl)-2-(1,1-dimethylethyl)-1,3-oxazol-4-yl]-2-fluorophenyl}-2-furansulfonamide] returned an IC50 under setting [1] of no more than 3.16 nM.

As to `O=C(NCc1nccc(-c2sc(N3CCOCC3)nc2-c2cccc(NS(=O)(=O)c3cc(F)ccc3F)c2F)n1)C1CCCC1` [Example 274, N-({4-[4-(3-{[(2,5-difluorophenyl)sulfonyl]amino}-2-fluorophenyl)-2-(4-morpholinyl)-1,3-thiazol-5-yl]-2-pyrimidinyl}methyl)cyclopentanecarboxamide], the IC50 under setting [3] is 3.16 to 31.6 nM.
